The source of these data is patent US7459532B2, “Variants of the TRP channel family member, LTRPC3G” (Bristol-Myers Squibb Company, priority 2003, dated 2008).

For assay [1], the system named is HEK 293 cells. The experiment in a line: Ca^2+ store depletion in LTRPC3-HA- and vector-transfected HEK 293 cells. It is filed as cell-based. How it is done: (§1) […] (A), or 50 μM carbachol (B) was first added to LTRPC3 variant expressing HEK 293 cells in the absence of external Ca^2+. After 9 minutes, 2 mM Ca^2+ solution was added to the cell medium at the indicated times. Currents for vector transfected HEK 293 cells, and LTRPC3 variant expressing HEK 293 cells are labeled accordingly. […] Cells loaded with Fluo-4 were incubated in 1 mM Ca^2+ solution and treated with 100 μM of La^3+ (“w/La^3+”), Gd^3+ (“w/Gd^3+”) or without blockers (“w/o blocker”) for 10 min prior to the addition of 10 mM Ca^2+ to the cell medium as indicated. Curves represent averages of three independent experiments, each involving at least 8 wells per condition. Physiometric methods were performed as described in Example 7 herein.
The store-operated mechanism of LTRPC3-mediated Ca^2+ influx was tested further by passively depleting Ca^2+ stores with thapsigargin (TG), an inhibitor of microsomal Ca^2+ ATPases that pumps ions from the cytosol back into the stores. […] Following store depletion with TG, addition of Ca^2+ to the buffer induced a much larger Ca^2+ entry in LTRPC3 cells compared to the vector control cells.
Receptor-mediated Ca^2+ entry was also more pronounced in LTRPC3-HA-transfected cells. Carbachol (CCh) can activate an endogenous muscarinic receptor and trigger IP3 production, leading to store-depletion in HEK 293 cells. […]

For assay [2], the target named is T1, LTRPC3 (Homo sapiens, UniProt Q9HCF6, R1695Q).
T1 construct: the complete open reading frame of LTRPC3 with a C-terminal HA tag was transiently transfected into HEK 293 cells; expressed in transfected cells; host or cells: HEK 293 (transient transfection, vector pcDNA3.1/Hygro-LTRPC3-HA)
T1 sequence (Q9HCF6 with tags, fused parts or gaps isoform Q9HCF6-2 R1670Q): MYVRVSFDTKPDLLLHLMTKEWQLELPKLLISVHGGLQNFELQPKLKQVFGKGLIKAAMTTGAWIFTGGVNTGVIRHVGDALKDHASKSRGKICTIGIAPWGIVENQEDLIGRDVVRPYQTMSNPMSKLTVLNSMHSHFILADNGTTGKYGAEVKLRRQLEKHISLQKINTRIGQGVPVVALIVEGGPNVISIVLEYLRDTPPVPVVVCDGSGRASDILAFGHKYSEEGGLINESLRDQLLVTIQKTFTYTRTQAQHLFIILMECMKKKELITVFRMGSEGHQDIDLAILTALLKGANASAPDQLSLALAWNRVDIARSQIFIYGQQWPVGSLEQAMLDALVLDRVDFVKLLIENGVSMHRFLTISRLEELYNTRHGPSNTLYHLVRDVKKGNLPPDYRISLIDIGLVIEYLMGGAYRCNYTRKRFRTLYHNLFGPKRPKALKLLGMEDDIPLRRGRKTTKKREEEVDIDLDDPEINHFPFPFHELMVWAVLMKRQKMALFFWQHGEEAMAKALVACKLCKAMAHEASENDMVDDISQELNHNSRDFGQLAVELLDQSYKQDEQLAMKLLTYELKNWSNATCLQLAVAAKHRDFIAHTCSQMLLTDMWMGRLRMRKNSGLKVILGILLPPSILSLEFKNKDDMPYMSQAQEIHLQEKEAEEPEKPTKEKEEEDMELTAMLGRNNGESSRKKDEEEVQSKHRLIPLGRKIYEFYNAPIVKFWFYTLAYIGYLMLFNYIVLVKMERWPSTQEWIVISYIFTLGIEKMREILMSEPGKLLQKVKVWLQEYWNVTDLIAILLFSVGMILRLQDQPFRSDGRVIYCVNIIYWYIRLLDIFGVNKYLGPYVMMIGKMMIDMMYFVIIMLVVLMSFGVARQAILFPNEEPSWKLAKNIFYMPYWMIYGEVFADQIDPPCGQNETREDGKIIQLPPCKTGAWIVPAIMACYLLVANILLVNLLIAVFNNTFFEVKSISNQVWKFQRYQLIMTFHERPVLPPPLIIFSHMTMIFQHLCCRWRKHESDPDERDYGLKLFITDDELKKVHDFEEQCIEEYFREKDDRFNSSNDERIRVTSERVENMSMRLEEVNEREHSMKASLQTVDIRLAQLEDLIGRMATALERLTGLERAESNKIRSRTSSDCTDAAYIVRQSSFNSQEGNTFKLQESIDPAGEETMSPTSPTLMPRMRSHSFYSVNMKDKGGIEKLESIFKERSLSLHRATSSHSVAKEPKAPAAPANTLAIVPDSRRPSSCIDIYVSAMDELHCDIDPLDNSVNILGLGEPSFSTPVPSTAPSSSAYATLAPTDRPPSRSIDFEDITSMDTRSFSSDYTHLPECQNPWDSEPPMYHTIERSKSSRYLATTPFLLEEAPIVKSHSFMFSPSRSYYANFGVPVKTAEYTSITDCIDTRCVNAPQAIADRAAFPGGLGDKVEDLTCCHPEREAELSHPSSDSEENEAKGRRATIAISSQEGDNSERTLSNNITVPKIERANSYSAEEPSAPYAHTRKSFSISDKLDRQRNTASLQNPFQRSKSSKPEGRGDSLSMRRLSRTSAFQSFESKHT
Nature of the assay: FLIPR Fluo-4 Ca^2+ entry in LTRPC3-transfected HEK 293 cells. Format: cell-based. The settings on record: for block of LTRPC3 Ca^2+ conductance/currents (in words): 1 mM Ca^2+ solution, addition of 10 mM Ca^2+; for block of LTRPC3 Ca^2+ currents: pre-treatment with 100 μM, stimulated by adding 10 mM Ca^2+. The method, then:
as §1
(§2) Panels A, C and E show results obtained for vector-transfected cells, while Panels B, D and F show results obtained for TRPM3-transfected cells. […] Cells loaded with Fluo-4 were incubated in 1 mM Ca^2+ solution and treated with 100 μM of Gd^3+ (red) or without blockers (black) for 10 min prior to the addition of 10 mM Ca^2+ to the bath solution as indicated. […] Cells loaded with Fluo-4 were incubated in a nominally Ca^2+-free media and treated without blockers (black) or with 100 μM of Gd^3+ (red) for 10 min prior to the addition of 2 μM TG (Panels C and D, first arrow) or 50 μM CCh (Panels E and F, first arrow), Ca^2+ entry was stimulated by the bath addition of 10 mM Ca^2+ (second arrow). Representative traces from one of three independent experiments are shown; each trace is the mean of 12 wells per condition. Physiometric methods were performed as described in Example 10 herein.
Moreover, physiometric studies have shown that LTRPC3 is a functional Ca^2+ permeable channel (see FIGS. 18 and 19, and Example 7). LTRPC3g function was assessed using a Fluorometric Imaging Plate Reader (FLIPR™) that measures real-time intracellular fluorescence changes. Cells transiently transfected with vector or LTRPC3-HA were loaded with the cytoplasmic Ca^2+ indicator Fluoro-4 in a 1 mM Ca^2+ solution. […] The non-transfected cells were indistinguishable from the vector-transfected cells (data not shown). Therefore, LTRPC3 is a constitutively active channel capable of mediating Ca^2+ influx.
The lanthanides, gadolinium (Gd^3+) and lanthanum (La^3+), are noneselective Ca^2+-permeable channel blockers, often used as part of the characterization of overexpressed TRP channels. […] In the presence of 1 mM Ca^2+ in which endogenous SOCs is minimally activated (FIG. 18A), pre-treatment with 100 μM of La^3+ and Gd^3+ blocked LTRPC3 Ca^2+ currents, stimulated by adding 10 mM Ca^2+, by 67 and 39%, respectively.
Additional experiments were performed to further confirm the Ca^2+ store-depleted activation of LTRPC3 using Gd^3+. The effects of 100 μM Gd^3+ on Ca^2+ permeability were tested in vector- and LTRPC3-transfected cells. […] In contrast, 100 μM Gd^3+ inhibited Ca^2+ entry, induced by adding 10 mM Ca^2+, by 53% in LTRPC3-transfected cells (see FIG. 22B). Gd^3+ reduced fluorescence units in vector-transfected cells from 1470±140 to −58±8 and in LTRPC3-transfected cells from 6000±322 to 2080±199 (n=12). Fluorescence values were measured 150 seconds after adding 10 mM Ca^2+ and percent blockade was calculated as 1 minus FLTRPC3-FVector in the presence of Gd^3+ divided by FLTRPC3-FVector without blocker. The effects of Gd^3+ on LTRPC3-mediated Ca^2+ entry, induced by 10 mM Ca^2+, in the presence of thapsigargin or carbachol was also examined. Cells were incubated in nominally Ca^2+-free medium for thapsigargin and carbachol experiments. Gd^3+ inhibited Ca^2+ entry by 51% after depletion of intracellular stores with thapsigargin (see FIG. 22B). Gd^3+ reduced peak fluorescence after 10 mM Ca^2+ addition in vector-transfected cells from 26444±2410 to 1316±60 and in LTRPC3-transfected cells from 37676±2425 to 6783±250 (see FIGS. 22C and D, respectively; n=12). […]

In assay [3] the test system is endogenous Ca^2+ entry pathways present in HEK 293 cells. The experiment in a line: FLIPR Fluo-4 Ca^2+ entry in vector-transfected HEK 293 cells. It is filed as cell-based. The settings on record: 100 μM. The method, then:
as §2
To further address the mechanism of LTRPC3-mediated Ca^2+ entry, similar Ca^2+ addition experiments were performed on transfected cells incubated (˜30 min) in a nominally Ca^2+-free solution. Previous studies have shown that lowering extracellular Ca^2+ concentration below physiological levels can deplete intracellular Ca^2+ stores in many cell types including HEK 293 (EMBO J. 17, 4274-4282, (1998)). Incubating vector-transfected HEK 293 cells in a nominally Ca^2+-free solution gave rise to Ca^2+ entry that was dependent on the concentration of Ca^2+ added to the buffers, indicating Ca^2+ influx was mediated through endogenous SOCs in HEK293 cells (FIG. 18, left panels). In LTRPC3 cells, the Ca^2+ transients triggered by similar Ca^2+ treatment were much larger (FIG. 18, right panels).
Additional experiments were performed to further confirm the Ca^2+ store-depleted activation of LTRPC3 using Gd^3+. The effects of 100 μM Gd^3+ on Ca^2+ permeability were tested in vector- and LTRPC3-transfected cells. […] In contrast, 100 μM Gd^3+ inhibited Ca^2+ entry, induced by adding 10 mM Ca^2+, by 53% in LTRPC3-transfected cells (see FIG. 22B). Gd^3+ reduced fluorescence units in vector-transfected cells from 1470±140 to −58±8 and in LTRPC3-transfected cells from 6000±322 to 2080±199 (n=12). Fluorescence values were measured 150 seconds after adding 10 mM Ca^2+ and percent blockade was calculated as 1 minus FLTRPC3-FVector in the presence of Gd^3+ divided by FLTRPC3-FVector without blocker. […] Gd^3+ reduced peak fluorescence after 10 mM Ca^2+ addition in vector-transfected cells from 26444±2410 to 1316±60 and in LTRPC3-transfected cells from 37676±2425 to 6783±250 (see FIGS. 22C and D, respectively; n=12). […] Gd^3+ reduced peak Ca^2+ fluorescence in vector-transfected cells from 9327±466 to 453±15 and in LTRPC3-transfected cells from 14747±988 to 1975±79 (see FIGS. 22E and F, respectively; n=12).

The test system of assay [4] is female recipients. The settings on record: picogram quantities to the female vomeronasal organ; cited from earlier work.
Assay [5] has as its system Human lung fibroblasts. Nature of the assay: human lung fibroblast growth assay with Alamar Blue. Format: cell-based. The settings on record: 3 days in basal medium. The method, then: Human lung fibroblasts are obtained from Clonetics (San Diego, Calif.) and maintained in growth media from Clonetics. Dermal microvascular endothelial cells are obtained from Cell Applications (San Diego, Calif.). For proliferation assays, the human lung fibroblasts and dermal microvascular endothelial cells can be cultured at 5,000 cells/well in a 96-well plate for one day in growth medium. The cells are then incubated for one day in 0.1% BSA basal medium. After replacing the medium with fresh 0.1% BSA medium, the cells are incubated with the test proteins for 3 days. Alamar Blue (Alamar Biosciences, Sacramento, Calif.) is added to each well to a final concentration of 10%. The cells are incubated for 4 hr. Cell viability is measured by reading in a CytoFluor fluorescence reader. For the PGE2 assays, the human lung fibroblasts are cultured at 5,000 cells/well in a 96-well plate for one day. […]
On the technique in general: Resazurin is reduced to fluorescent resorufin, in cell work by metabolically active cells.

The subject of assay [6] is nigral dopaminergic neurons. The settings on record: gel foam implants in the striatum; cited from earlier work.
The mark [7] stands for this setting: 100 μM, nominally Ca^2+-free medium, 10 mM Ca^2+ addition.

Entries after “also recorded” stand apart in the source; their conditions may differ.

`C[N+](C)(C)CCOC(N)=O` [CCh, Carbachol]: the “intracellular Ca^2+ response (in words)” value in assay [1] (50 μM, LTRPC3- and vector-transfected cells) is “transient and rapid intracellular Ca^2+ increase”.

Turning to `[Gd+3]` [Gd^3+, gadolinium (Gd^3+)], the “block of LTRPC3 Ca^2+ conductance/currents (in words)” value in assay [2] (100 μM for 10 min) is reported as “partially inhibited”. Moreover, the “effect on Tg and CCh induced LTRPC3 variant-mediated Ca^2+ entry (in words)” value in assay [2] (100 μM for 10 min, nominally Ca^2+-free media, 2 μM TG or 50 μM CCh, 10 mM Ca^2+) is “can be inhibited”. Further, in assay [2] (100 μM, 1 mM Ca^2+, 150 seconds after adding 10 mM Ca^2+, n=12), the “fluorescence in the presence of blocker, LTRPC3-transfected cells” value was 2080±199 fluorescence units. In addition, the “inhibition of Ca^2+ entry (percent blockade)” value in assay [2] (100 μM, cells in 1 mM Ca^2+, induced by adding 10 mM Ca^2+, 150 seconds after addition) is recorded as 53%. Further, in assay [2] (setting [7]), the “inhibition of Ca^2+ entry after depletion of intracellular stores with carbachol” value is 72% and the “inhibition of Ca^2+ entry after depletion of intracellular stores with thapsigargin” value was determined as 51%. For the same molecule, the “peak Ca^2+ fluorescence in the presence of blocker after carbachol, LTRPC3-transfected cells” value in assay [2] (100 μM, nominally Ca^2+-free medium, 10 mM Ca^2+ addition, n=12) came out at 1975±79. In addition, the “peak fluorescence in the presence of blocker after thapsigargin, LTRPC3-transfected cells” value in assay [2] (100 μM, nominally Ca^2+-free medium, after 10 mM Ca^2+ addition, n=12) stood at 6783±250. For the same molecule, in assay [2] (1 mM Ca^2+), the “block of LTRPC3 Ca^2+ currents” value was 39%. Also, the “fluorescence in the presence of blocker, vector-transfected cells” value in assay [3] (1 mM Ca^2+, 150 seconds after adding 10 mM Ca^2+, n=12) is −58±8 fluorescence units. For the same molecule, the “effect on minimal Ca^2+ influx in vector-transfected cells (in words)” value in assay [3] (1 mM Ca^2+, addition of 10 mM Ca^2+) is “strongly inhibited”. The “peak Ca^2+ fluorescence in the presence of blocker after carbachol, vector-transfected cells” value in assay [3] (nominally Ca^2+-free medium, 10 mM Ca^2+ addition, n=12) is listed as 453±15. In addition, the “peak fluorescence in the presence of blocker after thapsigargin, vector-transfected cells” value in assay [3] (nominally Ca^2+-free medium, after 10 mM Ca^2+ addition, n=12) was determined as 1316±60.

As for `[La+3]` [La^3+, lanthanum (La^3+)], the “block of LTRPC3 Ca^2+ conductance/currents (in words)” value in assay [2] (100 μM for 10 min) is “inhibited; also recorded: more potent”. Moreover, in assay [2] (1 mM Ca^2+), the “block of LTRPC3 Ca^2+ currents” value was found to be 67%.

For `C[C@@]12C=CC[C@H]1[C@@H]1CCC3=CC(=O)CC[C@]3(C)[C@H]1CC2` [androstadienone], the “nervousness, tension and other negative feelings” value in assay [4] is on record as “significant reduction”.

Take `C/C=C(/C)C(=O)O[C@H]1C(C)=C2[C@H]([C@@H]1OC(=O)CCCCCCC)[C@@](C)(OC(C)=O)C[C@H](OC(=O)CCC)[C@@]1(O)[C@H]2OC(=O)[C@@]1(C)O` [thapsigargin]: in assay [1] (2 μM, LTRPC3-HA- and vector-transfected cells), the “depletion of Ca^2+ stores (in words)” value was “equivalently depleted Ca^2+ stores”.

As to “FGF-2: FGF-2 (basic FGF), growth factor used as comparator”, the “concentration at which stimulation of fibroblast growth should be shown” value in assay [5] is 10 to 2500 ng/mL. For the same molecule, the “protection of nigral dopaminergic neurons from the toxicity associated with MPTP exposure” value in assay [6] is on record as “near complete protection”.
